Results as given in publication PMC12284294 (iScience, 2025).
“Also recorded” adds a separate entry of the source. Peptide text beside a SMILES is read from it.

What was measured:
[1] = target: T1, FPR1 (Homo sapiens, UniProt P21462); test: cell-based; assay type: binding
T1 construct: expressed in transfected cells; host or cells: HEK293T
T1 sequence (P21462 1-350): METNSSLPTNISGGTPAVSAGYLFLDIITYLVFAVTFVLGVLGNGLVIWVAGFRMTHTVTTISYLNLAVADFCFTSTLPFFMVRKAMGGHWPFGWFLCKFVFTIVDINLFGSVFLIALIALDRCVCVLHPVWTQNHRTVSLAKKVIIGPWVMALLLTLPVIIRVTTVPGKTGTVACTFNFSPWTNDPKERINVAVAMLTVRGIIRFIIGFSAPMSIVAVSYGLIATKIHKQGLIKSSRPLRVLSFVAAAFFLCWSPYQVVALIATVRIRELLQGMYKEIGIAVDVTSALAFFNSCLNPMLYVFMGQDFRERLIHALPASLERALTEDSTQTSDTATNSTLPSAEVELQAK

[2] = tested on: human FPR2; assay type: cell-based; settings: MPR peptides 30 μM, n = 3
[3] = tested on: human FPR3; assay type: cell-based; settings: MPR peptides 30 μM, n = 3
[4] = tested on: neutrophil-like differentiated HL-60 cells (dHL-60); assay type: cell-based, human; settings: CV peptides 10 μM, n = 3–5
[5] = tested on: neutrophils; assay type: cell-based, human
[6] = tested on: ERK1/2 phosphorylation via FPR1; test: ERK1/2 phosphorylation assay in FPR1-transfected HEK293T cells; assay type: cell-based, human; settings: MPR peptide 10 μM, 15 min
Method: 300.000 cells were seeded in each well of an uncoated 12-well plate. After 30 min settling time on ice, cells were treated with the respective stimulants and incubated at 37°C, 5% CO2 for 15 min. Cells were subsequently washed with 500 μL PBS and then lysed with 250 μL protein extraction buffer (50 mM Tris-HCl pH 8.0, 5 mM EDTA, 150 mM NaCl, 0.5% [v/v] Triton-X, 5 mM DTT, Roche complete protease inhibitor) for 5 min on ice. Lysates were then placed into protein low bind tubes (Eppendorf) and treated for 20 min in an ultrasonic bath. Samples were centrifuged at 4°C, 12.000 rpm for 20 min to remove debris. Supernatants were collected and stored at −20°C until further use. Protein concentrations were determined using ROTINanoquant in a F[…] multimode reader. Samples were mixed with LDS sample buffer and NuPAGE reduction agent and subsequently heated at 70°C for 10 min 20 μg of each sample were loaded onto a 10% Bis-Tris gel. SDS-PAGE was performed at […] for 40 min. Proteins were blotted onto nitrocellulose membranes using a Wet Tank blotting system at 350 mA for 60 min. Transfer was controlled by Ponceau S staining. Membranes were then blocked with 3% BSA and 0.1% Tween 20 in PBS (PBST) for 60 min. […] Detection of luminescence signals was performed with ECL Prime Kit in a LumiImager. […] Signals of actin staining were measured as described above. […]

[7] = tested on: FPR2; settings: cited from earlier work
Excerpt: (§1) Besides viral peptides that interact with FPR1 and FPR2, we identified a large novel group of FPR3 specific viral activators - a receptor for which very few biological relevant activators have been described yet,[53]^,[72] leaving much room for speculations about its major biological function.[1]^,[2] In contrast to FPR1 and FPR2, for which a large panel of receptor subtype-selective ligands have been described, only two biological relevant agonists with a known preference for FPR3 were identified. One is the mitochondrial-derived neuroprotective peptide Humanin[51]^,[52]^,[73] that binds to F ...

[8] = tested on: FPR3; settings: cited from earlier work
Excerpt: as §1

[9] = tested on: human polymorphonuclear granulocytes (PMN; neutrophils); assay type: cell-based; settings: mix at 3 μM, 1 μM, 0.3 μM; MPR peptide 10 μM co-applied, n = 3
[10] = tested on: MMP-9 release of isolated PMNs; assay type: cell-based, human; settings: activator mix 3 μM with MPR peptide, n = 5

CSCC[C@H](N)C(=O)N[C@@H](Cc1ccc(O)cc1)C(=O)N[C@H](C(=O)N[C@@H](CCCCN)C(=O)N[C@@H](Cc1c[nH]c2ccccc12)C(=O)N1CCC[C@H]1C(=O)N[C@@H](Cc1c[nH]c2ccccc12)C(=O)N[C@@H](Cc1ccc(O)cc1)C(=O)N[C@H](C(=O)N[C@@H](Cc1c[nH]c2ccccc12)C(=O)N[C@@H](CC(C)C)C(=O)O)C(C)C)C(C)C [CV2*] (H-MYVKWPWYVWL-OH; N-terminus and C-terminus assumed)
binding affinity for FPR1, FPR2, and FPR3, fold lower than the other MPR peptides [1]: approximately 10 fold
calcium levels in FPR2 transfected cells [2]: strongest
calcium response of FPR3-transfected cells [3]: responded; also recorded: strongest; also recorded: FPR3 activation
calcium signal in dHL-60 cells [4]: positive calcium flux
neutrophil migration ([5]; MPR peptide 10 μM, 90 min, n = 3-5): triggers
ERK signaling via FPR1 [6]: triggers

F2L: acetylated 21mer N-terminal cleavage product of heme-binding-protein-1
concentrations that activate FPR2 [7]: low micromolar
concentrations that activate FPR3 [8]: low nanomolar

CC[C@H](C)[C@H](NC(=O)[C@H](Cc1ccc(O)cc1)NC(=O)[C@@H](NC(=O)[C@@H](N)CCC(=O)O)[C@@H](C)O)C(=O)N[C@@H](CCCCN)C(=O)N[C@@H](Cc1c[nH]c2ccccc12)C(=O)N1CCC[C@H]1C(=O)N[C@@H](Cc1c[nH]c2ccccc12)C(=O)N[C@@H](Cc1c[nH]c2ccccc12)C(=O)N[C@H](C(=O)N[C@@H](Cc1c[nH]c2ccccc12)C(=O)N[C@@H](CC(C)C)C(=O)O)C(C)C [CV1]
effect on activator-mix-induced calcium flux in neutrophils [9]: calcium flux suppression
inhibition of the migratory response to the activator peptide mix ([5]; MPR peptide 10 μM co-applied, n = 5): near complete inhibition
effect on activator-mix-triggered MMP-9 release [10]: attenuated
